# Literature values in patent publication US20190125940A1, “STENTS FOR THE RELEASE OF ACTIVE PRINCIPLES” (CID S.p.A., priority 2016, published 2019).
# Settings: related to complete in vitro release at 30 hours; Eurointervention 2012; 7:1087-1094
compound,measurement,value
CO[C@H]1C[C@@H]2CC[C@@H](C)[C@@](O)(O2)C(=O)C(=O)N2CCCC[C@H]2C(=O)O[C@H]([C@H](C)C[C@@H]2CC[C@@H](O)[C@H](OC)C2)CC(=O)[C@H](C)/C=C(\C)[C@@H](O)[C@@H](OC)C(=O)[C@H](C)C[C@H](C)/C=C/C=C/C=C/1C [Sirolimus],in vivo release after coronary implantation,greater than 30 days
